Where two headings read alike, the source gives them in different places.
Key:
[1] = system: OR98a; design: method as in earlier work; conditions: DoOR database value; ref DoOR; cited from earlier work
[2] = system: OR47a; design: method as in earlier work; conditions: DoOR database value; ref DoOR; cited from earlier work
[3] = system: OR85b; design: method as in earlier work; conditions: DoOR database value; ref DoOR; cited from earlier work
[4] = system: OR10a; design: method as in earlier work; conditions: DoOR database value; ref DoOR; cited from earlier work
[5] = biological target: T1, Drosophila OR47a (Drosophila melanogaster, UniProt P81921); experiment: Calcium ion fluorescence (GCaMP6) assay, OR47a stable HEK293 cell line; type: cell-based; conditions: for Average response: OR47a cell line, mean of biological replicates
T1 construct: expressed in transfected cells
T1 sequence (P81921 1-385): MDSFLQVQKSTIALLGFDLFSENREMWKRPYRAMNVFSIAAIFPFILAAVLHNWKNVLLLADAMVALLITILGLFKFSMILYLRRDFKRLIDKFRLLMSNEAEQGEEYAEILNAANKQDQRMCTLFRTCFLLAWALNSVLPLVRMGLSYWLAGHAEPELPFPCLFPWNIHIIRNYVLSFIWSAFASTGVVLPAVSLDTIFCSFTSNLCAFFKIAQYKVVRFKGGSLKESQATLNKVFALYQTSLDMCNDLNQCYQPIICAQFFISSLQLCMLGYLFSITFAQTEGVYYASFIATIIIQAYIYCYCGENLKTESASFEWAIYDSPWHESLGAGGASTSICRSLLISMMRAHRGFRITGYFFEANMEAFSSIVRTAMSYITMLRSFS
T1 sequence (Q9VNB5 1-486 partner): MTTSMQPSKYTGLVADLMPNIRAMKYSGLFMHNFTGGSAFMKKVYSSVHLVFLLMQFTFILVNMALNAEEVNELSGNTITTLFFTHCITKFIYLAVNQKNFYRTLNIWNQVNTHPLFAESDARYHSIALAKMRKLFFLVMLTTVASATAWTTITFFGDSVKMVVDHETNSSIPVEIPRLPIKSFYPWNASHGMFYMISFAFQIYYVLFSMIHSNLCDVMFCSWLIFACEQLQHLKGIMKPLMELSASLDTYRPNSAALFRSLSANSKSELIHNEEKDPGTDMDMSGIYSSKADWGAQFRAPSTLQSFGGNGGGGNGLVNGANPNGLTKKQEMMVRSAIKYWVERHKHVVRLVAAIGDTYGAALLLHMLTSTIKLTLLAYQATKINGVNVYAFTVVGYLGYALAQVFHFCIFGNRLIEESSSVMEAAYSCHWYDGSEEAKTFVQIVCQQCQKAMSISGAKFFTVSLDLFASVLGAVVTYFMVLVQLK
Outline: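 Responses are VUAA1-normalized ΔF: each VOC-evoked calcium signal, (FMAX−F0)/F0 over 30 s after injection, divided by the same line's mean 50 µM VUAA1 response. Cells were doxycycline-induced HEK293 with GCaMP6 and the cognate Drosophila OR, in HEPES buffer pH 7.3; ligands tested 0.01–100 μM.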

[6] = system: OR13a; design: method as in earlier work; conditions: DoOR database value; ref DoOR; cited from earlier work
[7] = system: OR49b; design: method as in earlier work; conditions: DoOR database value; ref DoOR; cited from earlier work
[8] = HEK293, read-out: OR47a Average response (VUAA1-normalized)
[9] = HEK293, read-out: OR47a response (VUAA1-normalized response)
[10] = ligand concentration 1 (unit not given), threshold 0.05, below shown as 0
[11] = ligand concentration 10 (unit not given), threshold 0.05, below shown as 0
[12] = ligand concentration 100 (unit not given), threshold 0.05, below shown as 0

Structure (SMILES) | OR98a DoOR response [1] | OR47a DoOR response [2] | OR85b DoOR response [3] | OR10a DoOR response [4] | activation at 1 µM [5, 9] | activation at 10 µM [5, 9] | activation at 100 µM [5, 9] | Average response ([5]; odorant cc. 1 µM) | Average response ([5]; odorant cc. 10 µM) | Average response ([5]; odorant cc. 100 µM) | OR13a DoOR response [6] | OR49b DoOR response [7] | DF norm AVERAGE OR47a [5, 10] | DF norm AVERAGE OR47a [5, 11] | DF norm AVERAGE OR47a [5, 12] | further results
C=CC(O)CCCCC (stereo not drawn) [1-octen-3-ol] | 0.58 | 0.25 | 0.53 | 0.019 | 0% | 0% | 14% | 0.00 | 0.0268 | 0.14 | 0.78 | 0.016 |  |  |  | activation at 1 µM [5, 8]: 0%; activation at 10 µM [5, 8]: 3%; activation at 100 µM [5, 8]: 14%; DF norm AVERAGE OR47a ([5]; concentration 1, normalized fluorescence change, values below 0.05 threshold given as 0): 0; DF norm AVERAGE OR47a ([5]; concentration 10, normalized fluorescence change, values below 0.05 threshold given as 0): 0; DF norm AVERAGE OR47a ([5]; concentration 100, normalized fluorescence change, values below 0.05 threshold given as 0): 0.1389
CC1=CC[C@@H](C(C)(C)O)CC1 [alpha-terpineol] | 0.033 | 0.018 | 0.11 | -0.005 | 0% | 0% | 0% | 0.00 | 0.00 | 0.00 | 0.023 | 0.006 | 0 | 0 | 0 | 
CC1=CCC2CC1C2(C)C (stereo not drawn) [alpha-pinene] | 0.43 | 0.035 | 0.15 | 0.004 | 0% | 0% | 0% | 0.04 | 0.00 | 0.0468 | 0.10 | 0.018 | 0 | 0 | 0 | 

— article PMC10709440, “High-throughput ligand profile characterization in novel cell lines expressing seven heterologous insect olfactory receptors for the detection of volatile plant biomarkers” (Scientific Reports, 2023)
